Experimental data from patent US9096500B2, “Acyl sulfonamide compounds” (Pfizer Limited, priority 2010, dated 2015).
Counter-ions that a name gives are not always drawn.

Biological target: T1, Nav1.7 (or SCN9A) channel (Homo sapiens, UniProt Q15858)
T1 construct: expressed in transfected cells
Experiment: Nav1.7 (hSCN9A) electrophysiology assay, PatchXpress platform
Type: cell-based
Conditions: estimated IC50 from single point electrophysiology data, HEK cells stably expressing hSCN9A, held at V1/2 of inactivation, read-out: Nav1.7 EIC50
Protocol: The ability of the compounds of formula (I) to block the Nav1.7 (or SCN9A) channel were measured using the assay described below.
Human Embryonic Kidney (HEK) cells were transfected with an hSCN9A construct using lipofectamine reagent (Invitrogen), using standard techniques. Cells stably expressing the hSCN9A constructs were identified by their resistance to G-418 (400 μg/ml). Clones were screened for expression using the whole-cell voltage-clamp technique.
HEK cells stably transfected with hSCN9A were maintained in DMEM medium supplemented with 10% heat-inactivated fetal bovine serum and 400 μg/ml G-418 in an incubator at 37° C. with a humidified atmosphere of 10% CO2. For HTS, cells were harvested from flasks by trypsinization and replated in an appropriate multi-well plate (typically 96 or 384 wells/plate) such that confluence would be achieved within 24 hours of plating. For electrophysiological studies, cells were removed from the culture flask by brief trypsinization and re-plated at low density onto glass cover slips. Cells were typically used for electrophysiological experiments within 24 to 72 hours after plating.
Cover slips containing HEK cells expressing hSCN9A were placed in a bath on the stage of an inverted microscope and perfused (approximately 1 ml/minutes) with extracellular solution of the following composition: 138 mM NaCl, 2 mM CaCl2, 5.4 mM KCl, 1 mM MgCl2, 10 mM glucose, and 10 mM HEPES, pH 7.4, with NaOH. […] The osmolarity of the extracellular and intracellular solutions was 300 mOsm/kg and 295 mOsm/kg, respectively. All recordings were made at room temperature (22-24° C.) using AXOPATCH 200B amplifiers and PCLAMP software (Axon Instruments, Burlingame, Calif.).
hSCN9A currents in HEK cells were measured using the whole-cell configuration of the patch-clamp technique (Hamill et al., 1981). Uncompensated series resistance was typically 2 to 5 mega ohms and >85% series resistance compensation was routinely achieved. […] Current records were acquired at 20 to 50 KHz and filtered at 5 to 10 KHz.
HEK cells stably transfected with hSCN9A were viewed under Hoffman contrast optics and placed in front of an array of flow pipes emitting either control or compound-containing extracellular solutions. All compounds were dissolved in dimethyl sulfoxide to make 10 mM stock solutions, which were then diluted into extracellular solution to attain the final concentrations desired. […] The voltage-dependence of inactivation was determined by applying a series of depolarizing prepulses (8 sec long in 10 mV increments) from a negative holding potential. The voltage was then immediately stepped to 0 mV to assess the magnitude of the sodium current. Currents elicited at 0 mV were plotted as a function of prepulse potential to allow estimation of the voltage at which 50% of the channels were inactivated (midpoint of inactivation or V1/2). Compounds were tested for their ability to inhibit hSCN9A sodium channels by activating the channel with a 20 msec voltage step to 0 mV following an 8 second conditioning prepulse to the empirically determined V1/2. Compound effect (% inhibition) was determined by difference in current amplitude before and after application of test compounds. […] Inhibition values <20% and >80% were excluded from the calculation.
Electrophysiological assays were conducted with PatchXpress 7000 hardware and associated software (Molecular Devices Corp). All assay buffers and solutions were identical to those used in conventional whole-cell voltage clamp experiments described above. hSCN9A cells were grown as above to 50%-80% confluency and harvested by trypsinization. Trypsinized cells were washed and resuspended in extracellular buffer at a concentration of 1×10^6 cells/ml. The onboard liquid handling facility of the PatchXpress was used for dispensing cells and application of test compounds.

T1 sequence (Q15858 whole entry): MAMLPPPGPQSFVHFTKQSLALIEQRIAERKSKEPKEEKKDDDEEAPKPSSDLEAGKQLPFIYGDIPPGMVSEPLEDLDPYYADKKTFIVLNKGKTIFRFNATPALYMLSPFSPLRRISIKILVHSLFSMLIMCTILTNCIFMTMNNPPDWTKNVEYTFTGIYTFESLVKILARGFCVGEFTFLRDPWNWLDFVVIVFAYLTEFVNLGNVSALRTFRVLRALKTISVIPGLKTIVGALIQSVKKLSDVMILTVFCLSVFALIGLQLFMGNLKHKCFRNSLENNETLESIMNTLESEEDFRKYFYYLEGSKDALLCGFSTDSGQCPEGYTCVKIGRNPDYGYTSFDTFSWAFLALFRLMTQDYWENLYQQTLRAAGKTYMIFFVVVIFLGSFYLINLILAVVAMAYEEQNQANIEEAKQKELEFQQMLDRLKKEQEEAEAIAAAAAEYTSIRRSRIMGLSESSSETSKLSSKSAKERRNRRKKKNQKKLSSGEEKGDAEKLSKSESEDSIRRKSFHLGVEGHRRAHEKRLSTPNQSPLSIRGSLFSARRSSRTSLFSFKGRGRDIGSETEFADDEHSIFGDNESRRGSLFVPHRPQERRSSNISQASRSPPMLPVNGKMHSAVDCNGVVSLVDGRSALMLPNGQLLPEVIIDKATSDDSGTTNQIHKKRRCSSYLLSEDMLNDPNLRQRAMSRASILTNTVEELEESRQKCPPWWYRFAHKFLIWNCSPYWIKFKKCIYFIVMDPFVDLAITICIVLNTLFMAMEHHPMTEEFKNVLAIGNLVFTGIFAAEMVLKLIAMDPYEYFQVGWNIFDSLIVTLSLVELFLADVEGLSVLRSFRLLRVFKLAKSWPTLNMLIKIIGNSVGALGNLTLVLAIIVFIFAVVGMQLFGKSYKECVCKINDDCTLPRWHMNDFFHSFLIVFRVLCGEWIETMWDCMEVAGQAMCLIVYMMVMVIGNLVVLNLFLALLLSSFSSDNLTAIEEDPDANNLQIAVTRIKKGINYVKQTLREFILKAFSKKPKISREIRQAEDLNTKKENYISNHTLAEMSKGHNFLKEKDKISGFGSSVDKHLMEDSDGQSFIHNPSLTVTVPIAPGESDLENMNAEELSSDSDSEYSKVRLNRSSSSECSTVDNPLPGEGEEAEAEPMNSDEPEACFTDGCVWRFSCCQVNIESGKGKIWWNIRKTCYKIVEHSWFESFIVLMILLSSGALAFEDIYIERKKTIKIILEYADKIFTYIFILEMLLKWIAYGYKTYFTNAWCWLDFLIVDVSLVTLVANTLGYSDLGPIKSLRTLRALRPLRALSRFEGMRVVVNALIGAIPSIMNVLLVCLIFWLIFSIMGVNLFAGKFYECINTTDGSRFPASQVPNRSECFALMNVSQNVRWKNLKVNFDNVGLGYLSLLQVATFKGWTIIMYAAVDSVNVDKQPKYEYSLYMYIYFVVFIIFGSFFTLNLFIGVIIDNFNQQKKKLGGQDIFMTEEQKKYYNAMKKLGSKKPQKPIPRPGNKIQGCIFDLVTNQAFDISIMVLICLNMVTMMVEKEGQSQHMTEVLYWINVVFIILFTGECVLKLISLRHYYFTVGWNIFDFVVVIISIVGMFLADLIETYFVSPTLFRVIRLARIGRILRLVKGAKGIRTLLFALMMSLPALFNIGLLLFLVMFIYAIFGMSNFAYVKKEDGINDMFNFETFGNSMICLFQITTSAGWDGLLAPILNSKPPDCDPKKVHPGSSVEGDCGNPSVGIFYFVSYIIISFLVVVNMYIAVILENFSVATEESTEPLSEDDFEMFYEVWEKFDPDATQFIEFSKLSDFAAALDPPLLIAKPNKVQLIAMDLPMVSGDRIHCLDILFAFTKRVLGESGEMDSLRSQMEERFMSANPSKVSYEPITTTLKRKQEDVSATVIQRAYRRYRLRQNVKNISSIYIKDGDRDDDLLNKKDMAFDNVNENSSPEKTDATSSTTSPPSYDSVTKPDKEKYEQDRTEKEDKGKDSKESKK

Row | IC50 | SMILES
1 | 160 nM | CS(=O)(=O)NC(=O)c1cc(F)c(COc2ccc(Cl)c(F)c2)cc1F [Example 49, 4-[(4-Chloro-3-fluorophenoxy)methyl]-2,5-difluoro-N-(methylsulfonyl)benzamide]
2 | 220 nM | CS(=O)(=O)NC(=O)c1cc(F)c(COc2ccc(Cl)c(OC(F)F)c2)cc1F [Example 50, 4-{[4-chloro-3-(difluoromethoxy)phenoxy]methyl}-2,5-difluoro-N-(methylsulfonyl)benzamide]
3 | 12 nM | CS(=O)(=O)NC(=O)c1cc(F)c(COc2ccc(Cl)c(OC(F)(F)F)c2)cc1F [Example 51, 4-((4-Chloro-3-(trifluoromethoxy)phenoxy)methyl)-2,5-difluoro-N-(methylsulfonyl)benzamide]
4 | 130 nM | CS(=O)(=O)NC(=O)c1cc(F)c(COc2ccc(OC(F)F)c(Cl)c2)cc1F [Example 52, 4-{[3-Chloro-4-(difluoromethoxy)phenoxy]methyl}-2,5-difluoro-N-(methylsulfonyl)benzamide]
5 | 13 nM | CS(=O)(=O)NC(=O)c1cc(F)c(COc2ccc(OC(F)(F)F)c(Cl)c2)cc1F [Example 53, 4-((3-Chloro-4-(trifluoromethoxy)phenoxy)methyl)-2,5-difluoro-N-(methylsulfonyl)benzamide]
6 | 130 nM | CS(=O)(=O)NC(=O)c1cc(F)c(COc2ccc(Cl)c(C(F)(F)F)c2)cc1F [Example 54, 4-((4-Chloro-3-(trifluoromethyl)phenoxy)methyl)-2,5-difluoro-N-(methylsulfonyl)benzamide]
7 | 88 nM | CS(=O)(=O)NC(=O)c1cc(F)c(COc2cccc(OC(F)(F)F)c2)cc1F [Example 56, 4-[(3-Trifluoromethoxy)methyl]-2,5-difluoro-N-(methylsulfonyl)benzamide]
8 | 21 nM | CS(=O)(=O)NC(=O)c1cc(Cl)c(OCc2ccc(C(F)(F)F)c(Cl)c2)cc1F [Example 58, 5-Chloro-4-(3-chloro-4-(trifluoromethyl)benzyloxy)-2-fluoro-N-(methylsulfonyl)benzamide]
9 | 14 nM | CS(=O)(=O)NC(=O)c1cc(Cl)c(OCc2ccc(Cl)c(C(F)(F)F)c2)cc1F [Example 59, 5-Chloro-4-(4-chloro-3-(trifluoromethyl)benzyloxy)-2-fluoro-N-(methylsulfonyl)benzamide]
10 | 29 nM | CS(=O)(=O)NC(=O)c1cc(Cl)c(COc2ccc(OC(F)(F)F)c(Cl)c2)cc1F [Example 60, 5-Chloro-4-((3-chloro-4-(trifluoromethoxy)phenoxy)methyl)-2-fluoro-N-(methylsulfonyl)benzamide]
11 | < 300 nM | CS(=O)(=O)NC(=O)c1cc(Cl)c(COc2ccc(OC(F)F)c(Cl)c2)cc1F [Example 61, 5-Chloro-4-{[3-chloro-4-(difluoromethoxy)phenoxy]methyl}-2-fluoro-N-(methylsulfonyl)benzamide]
12 | < 3000 nM | CS(=O)(=O)NC(=O)c1cc(Cl)c(COc2ccc(Cl)c(OC(F)F)c2)cc1F [Example 62, 5-Chloro-4-{[4-chloro-3-(difluoromethoxy)phenoxy]methyl}-2-fluoro-N-(methylsulfonyl)benzamide]
13 | 35 nM | CS(=O)(=O)NC(=O)c1cc(Cl)c(COc2ccc(Cl)c(OC(F)(F)F)c2)cc1F [Example 63, 5-Chloro-4-{[4-chloro-3-(trifluoromethoxy)phenoxy]methyl}-2-fluoro-N-(methylsulfonyl)benzamide]

Further lines, the molecule ahead of its results:

Row | SMILES | IC50
14 | CCc1ccc(OCc2ccc(C(=O)NS(C)(=O)=O)cc2OC)cc1 [Example 42, 4-[(4-Ethylphenoxy)methyl]-3-methoxy-N-(methylsulfonyl)benzamide diethylamine salt] | 250 nM
15 | CCc1ccc(OCc2ccc(C(=O)NS(C)(=O)=O)c(C)c2)cc1 [Example 43, 4-[(4-Ethylphenoxy)methyl]-2-methyl-N-(methylsulfonyl)benzamide diethylamine salt] | 4200 nM
16 | CS(=O)(=O)NC(=O)c1cc(F)c(COc2ccc(C#N)cc2Cl)cc1F [Example 44, 4-[(2-Chloro-4-cyanophenoxy)methyl]-2,5-difluoro-N-(methylsulfonyl)benzamide] | 2000 nM
17 | CS(=O)(=O)NC(=O)c1cc(F)c(COc2ccc(Cl)c(C#N)c2)cc1F [Example 47, 4-[(4-Chloro-3-cyanophenoxy)methyl]-2,5-difluoro-N-(methylsulfonyl)benzamide] | 1400 nM
18 | CS(=O)(=O)NC(=O)c1cc(F)c(COc2ccc(F)c(F)c2)cc1F [Example 48, 4-[(3,4-Difluorophenoxy)methyl]-2,5-difluoro-N-(methylsulfonyl)benzamide] | 1100 nM
19 | CS(=O)(=O)NC(=O)c1cc(F)c(COc2cc(F)ccc2F)cc1F [Example 55, 4-[(2,5-Difluorophenoxy)methyl]-2,5-difluoro-N-(methylsulfonyl)benzamide] | 570 nM
20 | CS(=O)(=O)NC(=O)c1cc(F)c(COc2cc(F)c(F)cc2F)cc1F [Example 57, 2,5-Difluoro-N-(methylsulfonyl)-4-[(2,4,5-trifluorophenoxy)methyl]benzamide] | 1100 nM
21 | COc1cc(Cl)ccc1OCc1ccc(C(=O)NS(C)(=O)=O)cc1 [Example 64, 4-[(4-Chloro-2-methoxyphenoxy)methyl]-N-(methylsulfonyl)benzamide] | > 3000 nM
22 | CS(=O)(=O)NC(=O)c1ccc(COc2ccc(C(F)(F)F)c(Cl)c2)cc1 [Example 65, 4-{[3-Chloro-4-(trifluoromethyl)phenoxy]methyl}-N-(methylsulfonyl)benzamide] | 80 nM
23 | COc1cc(COc2cc(F)c(C(=O)NS(C)(=O)=O)cc2F)ccc1Cl [Example 66, 4-(4-Chloro-3-methoxybenzyloxy)-2,5-difluoro-N-(methylsulfonyl)benzamide] | > 1000 nM
24 | CS(=O)(=O)NC(=O)c1cc(F)c(OCc2ccc(Cl)c(C#N)c2)cc1F [Example 67, 4-(4-Chloro-3-cyanobenzyloxy)-2,5-difluoro-N-(methylsulfonyl)benzamide Diethylamine salt] | 9200 nM
25 | COc1ccc(COc2cc(F)c(C(=O)NS(C)(=O)=O)cc2F)cc1Cl [Example 68, 4-(3-Chloro-4-methoxybenzyloxy)-2,5-difluoro-N-(methylsulfonyl)benzamide] | 9800 nM
26 | CS(=O)(=O)NC(=O)c1ccc(COc2ccc(Cl)c(Cl)c2)c(C#N)c1 [Example 69, 5-Cyano-4-((3,4-dichlorophenoxy)methyl)-N-(methylsulfonyl)benzamide Diethylamine salt] | 240 nM
27 | CS(=O)(=O)NC(=O)c1cc(F)c(OCc2ccc(Cl)c(C(F)(F)F)c2)cc1F [Example 70, 4-(4-Chloro-3-(trifluoromethyl)benzyloxy)-2,5-difluoro-N-(methylsulfonyl) benzamide] | 160 nM
28 | COc1ccc(COc2cc(F)c(C(=O)NS(C)(=O)=O)cc2Cl)cc1 [Example 71, 5-chloro-2-fluoro-4-[(4-methoxybenzyl)oxy]-N-(methylsulfonyl)benzamide] | 3900 nM
29 | CS(=O)(=O)NC(=O)c1ccc(OCc2ccc(Cl)cc2)c(Cl)c1 [Example 73, 3-chloro-4-[(4-chlorobenzyl)oxy]-N-(methylsulfonyl)benzamide] | 6400 nM
30 | CS(=O)(=O)NC(=O)c1ccc(OCc2cccc(Cl)c2)c(C#N)c1 [Example 74, 4-[(3-chlorobenzyl)oxy]-3-cyano-N-(methylsulfonyl)benzamide] | 9700 nM
